From patent US10246429B2, “Vinyl fluoride cyclopropyl fused thiazin-2-amine compounds as beta-secretase inhibitors and methods of use” (AMGEN INC., priority 2015, dated 2019) come the findings set out here.

The target of test [1] is BACE2 (Homo sapiens (Human), UniProt Q9Y5Z0). The test can be described thus: In vitro enzymatic BACE2 FRET assay. It is filed as biochemical. The conditions noted are these: read-out: IC50 IP (μM) BACE2 Enzyme.
Text: In Vitro Enzymatic BACE1 and BACE2 FRET (Fluorescence Resonance Energy Transfer) Assays (Enzyme Assay Data in Table 1)
Test [2] concerns the target Cathepsin D (CatD) (Homo sapiens (Human), UniProt P07339). The test can be described thus: CatD assay. The format is biochemical. As to conditions: read-out: IC50 IP (μM) CatD.

Chain of BACE2 (Q9Y5Z0 63-518): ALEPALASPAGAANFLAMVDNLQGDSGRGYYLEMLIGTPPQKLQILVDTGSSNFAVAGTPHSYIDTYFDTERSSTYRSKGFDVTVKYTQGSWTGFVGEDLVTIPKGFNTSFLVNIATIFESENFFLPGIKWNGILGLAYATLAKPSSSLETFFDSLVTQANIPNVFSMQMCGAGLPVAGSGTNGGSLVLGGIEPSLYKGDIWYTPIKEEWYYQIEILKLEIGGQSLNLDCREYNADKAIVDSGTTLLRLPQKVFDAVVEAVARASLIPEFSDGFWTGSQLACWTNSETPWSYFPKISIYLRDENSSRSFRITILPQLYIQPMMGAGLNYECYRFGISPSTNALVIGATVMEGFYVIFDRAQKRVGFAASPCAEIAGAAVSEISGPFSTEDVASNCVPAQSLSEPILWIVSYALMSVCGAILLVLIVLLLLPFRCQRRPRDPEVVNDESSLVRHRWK
Chain of Cathepsin D (CatD) (P07339 65-412, species assumed): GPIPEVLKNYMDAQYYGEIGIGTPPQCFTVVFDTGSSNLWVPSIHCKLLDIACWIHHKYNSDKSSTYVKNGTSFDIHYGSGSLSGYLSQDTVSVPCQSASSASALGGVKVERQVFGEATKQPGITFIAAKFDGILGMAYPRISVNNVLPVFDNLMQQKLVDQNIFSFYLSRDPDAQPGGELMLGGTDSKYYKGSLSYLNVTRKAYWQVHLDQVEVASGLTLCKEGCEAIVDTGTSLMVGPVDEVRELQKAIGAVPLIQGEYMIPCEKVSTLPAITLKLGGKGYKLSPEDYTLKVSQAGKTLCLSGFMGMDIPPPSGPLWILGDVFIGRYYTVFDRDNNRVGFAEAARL

For orientation: IC50 means the concentration needed to halve the response being measured. Regarding `CN(C)C(=O)[C@]12C[C@H]1[C@@](C)(c1cc(/C=C(\F)c3ncc(C#N)cn3)ccc1F)N=C(N)S2` [Example 170, (1S,5S,6S)-3-amino-5-(5-((Z)-2-(5-cyanopyrimidin-2-yl)-2-fluorovinyl)-2-fluorophenyl)-N,N,5-trimethyl-2-thia-4-azabicyclo[4.1.0]hept-3-ene-1-carboxamide], the results for the IC50 in test [1] and in test [2] were 0.00305 µM and 1700 µM, respectively.
For `CN(C)C(=O)[C@]12C[C@H]1[C@@](C)(c1cc(/C=C(\F)c3ccc(C#N)nc3)ccc1F)N=C(N)S2` [Example 171, (1S,5S,6S)-3-amino-5-(5-((Z)-2-(6-cyanopyridin-3-yl)-2-fluorovinyl)-2-fluorophenyl)-N,N,5-trimethyl-2-thia-4-azabicyclo[4.1.0]hept-3-ene-1-carboxamide], in that order: 0.642 µM and 824 µM.
For `CN(C)C(=O)[C@]12C[C@H]1[C@@](C)(c1cc(/C=C(\F)c3ccc(C#N)cc3F)ccc1F)N=C(N)S2` [Example 172, (1S,5S,6S)-3-amino-5-(5-((Z)-2-(4-cyano-2-fluorophenyl)-2-fluorovinyl)-2-fluorophenyl)-N,N,5-trimethyl-2-thia-4-azabicyclo[4.1.0]hept-3-ene-1-carboxamide], in that order: 0.146 µM and 202 µM.
For `CN(C)C(=O)[C@]12C[C@H]1[C@@](C)(c1cc(/C=C(\F)c3ccc(C#N)nn3)ccc1F)N=C(N)S2` [Example 174, (1S,5S,6S)-3-amino-5-(5-((Z)-2-(6-cyanopyridazin-3-yl)-2-fluorovinyl)-2-fluorophenyl)-N,N,5-trimethyl-2-thia-4-azabicyclo[4.1.0]hept-3-ene-1-carboxamide], in that order: 0.406 µM and 280 µM.
Regarding `CNC(=O)[C@]12C[C@H]1[C@@](C)(c1cc(/C=C(\F)c3ccc(Cl)cn3)ccc1F)N=C(N)S2` [Example 175, (1S,5S,6S)-3-amino-5-(5-((Z)-2-(5-chloropyridin-2-yl)-2-fluorovinyl)-2-fluorophenyl)-N,5-dimethyl-2-thia-4-azabicyclo[4.1.0]hept-3-ene-1-carboxamide], the IC50 in test [1] stood at 0.0364 µM; in test [2], 204 µM.
For the molecule `CN(C)C(=O)[C@]12C[C@H]1[C@@](C)(c1cc(/C=C(\F)c3ccc(Cl)cn3)cnc1F)N=C(N)S2` [Example 178, (1S,5S,6S)-3-amino-5-(5-((Z)-2-(5-chloropyridin-2-yl)-2-fluorovinyl)-2-fluoropyridin-3-yl)-N,N,5-trimethyl-2-thia-4-azabicyclo[4.1.0]hept-3-ene-1-carboxamide], the concentration for half-maximal inhibition (IC50) in test [1] is 0.00574 µM; in test [2] it was 609 µM.
Regarding `CN(C)C(=O)[C@]12C[C@H]1[C@@](C)(c1cc(/C=C(\F)c3ccc(C#N)cn3)cnc1F)N=C(N)S2` [Example 180, (1S,5S,6S)-3-amino-5-(5-((Z)-2-(5-cyanopyridin-2-yl)-2-fluorovinyl)-2-fluoropyridin-3-yl)-N,N,5-trimethyl-2-thia-4-azabicyclo[4.1.0]hept-3-ene-1-carboxamide], the figures for the IC50 in test [1] and in test [2] were 0.023 µM and greater than 400 µM, respectively.
Turning to `C[C@]1(c2cc(/C=C(\F)c3ccc(C#N)cn3)cnc2F)N=C(N)S[C@@]2(C(=O)N3CCOCC3)C[C@H]21` [Example 183, 6-((Z)-2-(5-((1S,5S,6S)-3-amino-5-methyl-1-(morpholine-4-carbonyl)-2-thia-4-azabicyclo[4.1.0]hept-3-en-5-yl)-6-fluoropyridin-3-yl)-1-fluorovinyl)nicotinonitrile], the IC50 in test [1] was determined as 0.241 µM; in test [2] it was 2140 µM.
For `CN(C)C(=O)[C@]12C[C@H]1[C@@](C)(c1cc(/C=C\F)ccc1F)N=C(N)S2` [Example 208, (1S,5S,6S)-3-amino-5-(2-fluoro-5-((Z)-2-fluorovinyl)phenyl)-N,N,5-trimethyl-2-thia-4-azabicyclo[4.1.0]hept-3-ene-1-carboxamide], in that order: 0.117 µM and 9.28 µM.
`Cc1nnc(COc2cnc(/C(F)=C/c3ccc(F)c([C@@]4(C)N=C(N)S[C@@]5(S(C)(=O)=O)C[C@H]54)c3)cn2)o1` [Example 228, (1R,5S,6S)-5-(2-fluoro-5-((Z)-2-fluoro-2-(5-((5-methyl-1,3,4-oxadiazol-2-yl)methoxy)pyrazin-2-yl)vinyl)phenyl)-5-methyl-1-(methylsulfonyl)-2-thia-4-azabicyclo[4.1.0]hept-3-en-3-amine]: the concentration for half-maximal inhibition (IC50) was 0.292 µM in test [1] and 46.3 µM in test [2].
For `CN(C)C(=O)[C@]12C[C@H]1[C@@](C)(c1cc(/C=C(\F)c3cc4nccnc4cn3)ccc1F)N=C(N)S2` [Example 247, (1S,5S,6S)-3-amino-5-(2-fluoro-5-((Z)-2-fluoro-2-(pyrido[3,4-b]pyrazin-7-yl)vinyl)phenyl)-N,N,5-trimethyl-2-thia-4-azabicyclo[4.1.0]hept-3-ene-1-carboxamide], in that order: 0.385 µM and 1190 µM.
For `C[C@]1(c2cc(/C=C(\F)c3cnc(Cl)cn3)ccc2F)N=C(N)S[C@]2(CO)[C@H]1C2(F)F` [Example 252, ((1S,5S,6R)-3-amino-5-(5-((Z)-2-(5-chloropyrazin-2-yl)-2-fluorovinyl)-2-fluorophenyl)-7,7-difluoro-5-methyl-2-thia-4-azabicyclo[4.1.0]hept-3-en-1-yl)methanol], in that order: 0.151 µM and 158 µM.
For `COC(=O)[C@@]12SC(N)=N[C@](C)(c3cc(/C=C(\F)c4ccc(C#N)cn4)ccc3F)[C@@H]1C2(F)F` [Example 256, (1S,5S,6R)-methyl 3-amino-5-(5-((Z)-2-(5-cyanopyridin-2-yl)-2-fluorovinyl)-2-fluorophenyl)-7,7-difluoro-5-methyl-2-thia-4-azabicyclo[4.1.0]hept-3-ene-1-carboxylate], in that order: 0.252 µM and 760 µM.
Turning to `COC[C@@]12SC(N)=N[C@](C)(c3cc(/C=C(\F)c4ccc(C#N)cn4)ccc3F)[C@@H]1C2(F)F` [Example 258, 6-((Z)-2-(3-((1S,5S,6R)-3-amino-7,7-difluoro-1-(methoxymethyl)-5-methyl-2-thia-4-azabicyclo[4.1.0]hept-3-en-5-yl)-4-fluorophenyl)-1-fluorovinyl)nicotinonitrile], the IC50 worked out at 0.118 µM in test [1] and 90.7 µM in test [2].
In the case of `C[C@]1(c2cc(/C=C(\F)c3ccc(C#N)cn3)cnc2F)N=C(N)S[C@@]2(C(=O)N3CCC(F)(F)CC3)C[C@H]21` [Example 260, 6-((Z)-2-(5-((1S,5S,6S)-3-amino-1-(4,4-difluoropiperidine-1-carbonyl)-5-methyl-2-thia-4-azabicyclo[4.1.0]hept-3-en-5-yl)-6-fluoropyridin-3-yl)-1-fluorovinyl)nicotinonitrile], the IC50 was 0.115 µM in test [1] and 84.1 µM in test [2].
For `COC[C@]12C[C@H]1[C@@](C)(c1cc(/C=C(\F)c3cnc(Cl)cn3)ccc1F)N=C(N)S2` [Example 261, (1S,5S,6S)-5-(5-((Z)-2-(5-chloropyrazin-2-yl)-2-fluorovinyl)-2-fluorophenyl)-1-(methoxymethyl)-5-methyl-2-thia-4-azabicyclo[4.1.0]hept-3-en-3-amine], in that order: 0.08 µM and 357 µM.
